{"source": "patent US20020090664A1", "about": "“Methods for measuring stress in mammals” (priority 2000, published 2002)", "origin": "cited, not measured here", "system": "salivary cortisol", "conditions": "adults exposed to the fragrance before the stressful event, compared with challenge without fragrance; Tanizawa, JP Patent No.11-19076", "data": [{"smiles": "Cc1c[nH]c2ccccc12", "note": "[skatole]", "values": [{"measurement": "effect of fragrance on stress induced release of cortisol (salivary cortisol levels)", "result": "opposite effect"}]}]}
